The values below come from patent publication US8778871B2 (Takeda Pharmaceutical Company Limited, priority 2004, dated 2014).

Starred links: 1 amine or outer side, 2 acyl side, 3 side chain; linkers in the order of their positions; H or OH if unused. Non-standard residues stand in square brackets, D forms with d. Residues, ends and D or L forms follow the SMILES beside them. No end group written: not given here. *: point of attachment. X1 = NC(=O)C[C@@H](C(=O)[*:2])N(C[C@@H](N)Cc1ccc(O)cc1)[*:1]; Acetyl(2-(4-imidazolyl)) = O=C(Cc1c[nH]cn1)*; Arg(Me) = CNC(=N)NCCC[C@H](N)C(=O)O; d4Pal = N[C@H](Cc1ccncc1)C(=O)O; Cbz = O=C(OCc1ccccc1)*; azaGly = NNC(=O)O

The target in assay [1] is T1, hOT7T175 (Homo sapiens, UniProt Q969F8).
T1 construct: expressed in transfected cells
T1 sequence (Q969F8 whole entry L364H): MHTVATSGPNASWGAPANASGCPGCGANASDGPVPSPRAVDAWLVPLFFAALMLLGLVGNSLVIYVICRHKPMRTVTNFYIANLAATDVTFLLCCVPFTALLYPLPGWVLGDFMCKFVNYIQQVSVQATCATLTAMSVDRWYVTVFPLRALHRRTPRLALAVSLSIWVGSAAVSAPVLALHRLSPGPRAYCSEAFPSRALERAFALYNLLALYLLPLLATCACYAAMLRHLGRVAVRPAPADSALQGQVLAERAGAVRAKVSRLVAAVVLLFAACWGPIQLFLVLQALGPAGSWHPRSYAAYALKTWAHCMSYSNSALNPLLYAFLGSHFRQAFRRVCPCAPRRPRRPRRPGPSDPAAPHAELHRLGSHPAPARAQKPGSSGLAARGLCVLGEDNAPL
Put plainly: Intracellular Ca ion level-increasing activity using FLIPR (180 seconds; specific activity to Metastin (1-54)). It counts as cell-based. The following applies: hOT7T175/CHO, change in intracellular calcium ion level for 180 seconds, Tables 21-23. (A change in cytosolic calcium serves as a functional read-out for many receptors and channels.)

The target of assay [2] is T2, hOT7T175 (Homo sapiens, UniProt Q969F8, L364H).
T2 construct: expressed in transfected cells
T2 sequence (Q969F8 whole entry L364H): as above
It counts as cell-based. The following applies: hOT7T175/CHO, FLIPR, evaluation for 40 seconds after initiation of the reaction.
Protocol: The intracellular Ca ion level-increasing activity was measured using FLIPR as in TEST EXAMPLE 2.

For “Benzoyl-Phe-AzaGly-Leu-Arg(Me)-Trp-NH2 [Compound No. 353]”, the “intracellular Ca ion level-increasing activity [specific activity to Metastin (1-54)]” value on hOT7T175 [1] was 10. The “Specific Act. (EC50/MS10 EC50)” value at hOT7T175 [2] worked out at 0.8.
The like results for “Ac-NSF[azaGly]L[Arg(Me)]W-NH2 [Compound No. 510]” were, in that order, 3 and 3.5.
The like results for `CNC(=N)NCCC[C@H](NC(=O)[C@H](CC(C)C)NC(=O)NNC(=O)[C@H](Cc1ccccc1)NC(=O)[C@@H](NC(=O)[C@H](CC(N)=O)NC(=O)[C@H](Cc1c[nH]c2ccccc12)NC(=O)[C@@H](CC(N)=O)NC(=O)[C@H](N)Cc1ccc(O)cc1)[C@@H](C)O)C(=O)N[C@@H](Cc1ccccc1)C(N)=O` [Compound No. 298, D-Tyr-D-Asn-Trp-Asn-Thr-Phe-AzaGly-Leu-Arg(Me)-Phe-NH2] (H-[dY][dN]WNTF[azaGly]L[Arg(Me)]F-NH2) were, in that order, 5 and 1.8.
As to “[dY][dF]ASF[azaGly]L[Arg(Me)]W-NH2 [Compound No. 514]”, the “intracellular Ca ion level-increasing activity [specific activity to Metastin (1-54)]” value at hOT7T175 [1] is given as 10. Besides, the “Specific Act. (EC50/MS10 EC50)” value on hOT7T175 [2] was 0.7.
Taken in the same sequence, the figures for “D-Tyr-D-Pya(4)-Asn-Ser-Phe-AzaGly-Leu-Har-Trp-NH2 [Compound No. 481]” were 5 and 2.4.
Taken in the same sequence, the figures for “D-Tyr-Pya(4)-Asn-Ser-Phe-AzaGly-Leu-Arg(Me)-Phe-NH2 [Compound No. 490]” were 3 and 6.2.
`CNC(=N)NCCC[C@H](NC(=O)[C@H](CC(C)C)NC(=O)NNC(=O)[C@H](Cc1ccccc1)NC(=O)[C@H](CO)NC(=O)[C@H](CC(N)=O)NC(=O)[C@H](Cc1ccccc1)NC(=O)[C@@H](CC(N)=O)NC(=O)[C@H](N)Cc1ccc(O)cc1)C(=O)N[C@@H](Cc1ccccc1)C(N)=O` [Compound No. 257, D-Tyr-D-Asn-Phe-Asn-Ser-Phe-AzaGly-Leu-Arg(Me)-Phe-NH2] (H-[dY][dN]FNSF[azaGly]L[Arg(Me)]F-NH2): on hOT7T175 [1], the “intracellular Ca ion level-increasing activity [specific activity to Metastin (1-54)]” value is 3.
The same measure, in the same setting: for `CNC(=N)NCCC[C@H](NC(=O)[C@H](CC(C)C)NC(=O)NNC(=O)[C@H](Cc1ccccc1)NC(=O)[C@H](CO)NC(=O)[C@H](CC(N)=O)NC(=O)[C@@H](N)Cc1c[nH]c2ccccc12)C(=O)N[C@@H](Cc1ccccc1)C(N)=O` [Compound No. 271, Trp-Asn-Ser-Phe-AzaGly-Leu-Arg(Me)-Phe-NH2] (H-WNSF[azaGly]L[Arg(Me)]F-NH2) the value was 1.
As for `CNC(=N)NCCC[C@H](NC(=O)[C@H](CC(C)C)NC(=O)NNC(=O)[C@H](Cc1ccccc1)NC(=O)[C@H](CO)NC(=O)[C@H](CC(N)=O)NC(=O)[C@@H](Cc1ccncc1)NC(=O)[C@H](CC(N)=O)NC(=O)[C@H](N)Cc1ccc(O)cc1)C(=O)N[C@@H](Cc1ccccc1)C(N)=O` [Compound No. 302, D-Tyr-Asn-D-Pya(4)-Asn-Ser-Phe-AzaGly-Leu-Arg(Me)-Phe-NH2] (H-[dY]N[d4Pal]NSF[azaGly]L[Arg(Me)]F-NH2), the “intracellular Ca ion level-increasing activity [specific activity to Metastin (1-54)]” value at hOT7T175 [1] was found to be 2.
On to “Benzyl-Phe-AzaGly-Leu-Arg(Me)-Trp-NH2 [Compound No. 450]”, for which the “intracellular Ca ion level-increasing activity [specific activity to Metastin (1-54)]” value at hOT7T175 [1] is “⅓”.
On the same count and under the same terms, next, “Benzoyl-Pya(2)-AzaGly-Leu-Arg(Me)-Trp-NH2 [Compound No. 441]”: 1; “4-Pyridinecarbonyl-Phe-AzaGly-Val-Arg(Me)-Trp-NH2 [Compound No. 460]”: “⅓”.
Take “D-Tyr-D-Pya(4)-Asn-Ser-Phe-AzaGly-Leu-Har(Me)-Phe-NH2 [Compound No. 489]”: on hOT7T175 [1], the “intracellular Ca ion level-increasing activity [specific activity to Metastin (1-54)]” value is given as “½”.
Same read-out and setting: for “Dibenzylaminocarbamoylacetyl-Leu-Arg(Me)-Trp-NH2 [Compound No. 434]” the value was 1/10.
Same read-out and setting: for `CNC(=N)NCCC[C@H](NC(=O)[C@H](CC(C)C)NC(=O)NNC(=O)[C@H](Cc1ccccc1)NC(=O)[C@H](CO)NC(=O)[C@H](CC(N)=O)NC(=O)[C@H](Cc1c[nH]c2ccccc12)NC(=O)[C@@H](CO)NC(=O)[C@H](N)Cc1ccc(O)cc1)C(=O)N[C@@H](Cc1ccccc1)C(N)=O` [Compound No. 287, D-Tyr-D-Ser-Trp-Asn-Ser-Phe-AzaGly-Leu-Arg(Me)-Phe-NH2] (H-[dY][dS]WNSF[azaGly]L[Arg(Me)]F-NH2) the value was 2; for “Z-Phe-AzaGly-Leu-Arg(Me)-Trp-NH2 [Compound No. 367]”, “⅕”.
The same measure, in the same setting: for “n-Hexanoyl-Phe-AzaGly-Leu-Arg(Me)-Phe-NH2 [Compound No. 347]” the value was “½”.
As to “3-Pyridinecarbonyl-Phe-AzaGly-Leu-Arg(Me)-Trp-NH2 [Compound No. 432]”, the “intracellular Ca ion level-increasing activity [specific activity to Metastin (1-54)]” value at hOT7T175 [1] amounted to 2.
Same read-out and setting: next, `CNC(=N)NCCC[C@H](NC(=O)[C@H](CC(C)C)NC(=O)NNC(=O)[C@H](Cc1ccccc1)NC(=O)[C@H](CO)NC(=O)[C@H](CC(N)=O)NC(=O)Cc1c[nH]cn1)C(=O)N[C@@H](Cc1ccccc1)C(N)=O` [Compound No. 323, 4-Imidazoleacetyl-Asn-Ser-Phe-AzaGly-Leu-Arg(Me)-Phe-NH2] ({Acetyl(2-(4-imidazolyl))}-NSF[azaGly]L[Arg(Me)]F-NH2): 1; “2-Methylnicotinoyl-Phe-AzaGly-Leu-Arg(Me)-Trp-NH2 [Compound No. 443]”: “½”; “D-Tyr-Pya(4)-Phe-AzaGly-Leu-Arg(Me)-Trp-NH2 [Compound No. 495]”: “⅙”.
The same measure, in the same setting: for `CNC(=N)NCCC[C@H](NC(=O)[C@H](CC(C)C)NC(=O)NNC(=O)[C@H](Cc1ccccc1)NC(=O)[C@H](CO)NC(=O)[C@H](CC(N)=O)NC(=O)[C@H](Cc1c[nH]c2ccccc12)NC(C)=O)C(=O)N[C@@H](Cc1ccccc1)C(N)=O` [Compound No. 272, Acetyl-Trp-Asn-Ser-Phe-AzaGly-Leu-Arg(Me)-Phe-NH2] (Ac-WNSF[azaGly]L[Arg(Me)]F-NH2) the value was 2; for “Cbz-F[azaGly]L[Arg(Me)]F-NH2 [Compound No. 348]”, “⅕”.
In the case of “3-Phenylpropionyl-AzaGly-Leu-Arg(Me)-Phe-NH2 [Compound No. 362]”, the “intracellular Ca ion level-increasing activity [specific activity to Metastin (1-54)]” value on hOT7T175 [1] is 1/10.
Turning to `CNC(=N)NCCC[C@H](NC(=O)[C@H](CC(C)C)NC(=O)NNC(=O)[C@H](Cc1ccccc1)NC(=O)[C@H](CO)NC(=O)[C@H](CC(N)=O)NC(=O)[C@H](Cc1c[nH]c2ccccc12)NC(=O)[C@H](CC(N)=O)NC[C@@H](N)Cc1ccc(O)cc1)C(=O)N[C@@H](Cc1ccccc1)C(N)=O` [Compound No. 299, TyrΨ(CH2NH)Asn-Trp-Asn-Ser-Phe-AzaGly-Leu-Arg(Me)-Phe-NH2] (H-[X1]WNSF[azaGly]L[Arg(Me)]F-NH2), the “intracellular Ca ion level-increasing activity [specific activity to Metastin (1-54)]” value at hOT7T175 [1] is 5.
